In publication PMC5584945, “Evaluation of robenidine analog NCL195 as a novel broad-spectrum antibacterial agent” (PLoS ONE, 2017):
In brackets after ≈: the same amount, converted by molar mass.

Assays:
[1] = test system: Hep G2; assay: In vitro cytotoxicity, WST-1; format: cell-based; conditions: Homo sapiens, HepG2; 24 h exposure; read-out: IC50 values ± SEM
Source text: (§1) In order to ensure minimal off target mammalian cell cytotoxicity, we assayed NCL812, NCL195 and NCL219 for in vitro cytotoxicity using a panel of adherent mammalian cell lines: Caco-2 (human colorectal adenocarcinoma cell line), HEL 299 (non-cancerous human lung fibroblast cell line), Hep G2 (human hepatocellular carcinoma cell line), MDBK (normal bovine kidney cell line) and MCF7 (human mammary gland adenocarcinoma cell line). Cell lines were maintained in Dulbecco’s Modified Eagle’s Medium (DMEM; […] After 24 h incubation, media was removed, washed once with medium without antibiotics and fresh medium supplemented with 10% (vol/vol) FBS was added. […] Following exposure for 24 h, WST-1 reagent was added to each well at a final concentration of 10%. […] The IC50 value for each compound against each cell line was determined via non-linear regression (three parameters) using GraphPad Prism v6 software. The robustness of assays was confirmed with selected cell lines (Hep G2 and MDBK) seeded onto a 96–well Microwell Nunclon Delta Surface plate (Thermo Scientific Nunc; Cat No: 136101) at 5 × 10^4 cells per well.

[2] = test system: MCF7; assay: In vitro cytotoxicity, WST-1; format: cell-based; conditions: Homo sapiens, 24 h exposure, read-out: IC50 values ± SEM
Source text: as §1

[3] = test system: Caco-2; assay: In vitro cytotoxicity, WST-1; format: cell-based; conditions: Homo sapiens, 24 h exposure, read-out: IC50 values ± SEM
Source text: as §1

[4] = test system: HEL 299; assay: In vitro cytotoxicity, WST-1; format: cell-based; conditions: Homo sapiens, 24 h exposure, read-out: IC50 values ± SEM
Source text: as §1

[5] = test system: S. pneumoniae; assay: MIC, broth micro-dilution (CLSI); format: cell-based, Streptococcus pneumoniae; conditions: for MIC / MIC50 / MIC90: Streptococcus pneumoniae
[6] = Pharmacokinetics after IV administration; format: in vivo, mouse; conditions: mouse, plasma, male Swiss outbred mice
Procedure: (§2) Mice had access to food and water ad libitum throughout the pre- and post-dose sampling period. The Animal Ethics Committee of the Monash Institute of Pharmaceutical Sciences reviewed and approved all animal PK experiments (approval number MIPS.2013.33). The PK studies were conducted in compliance with the Australian Code of Practice for the Care and Use of Animals for Scientific Purposes (7th Edition 2004). […] For both the IV and IP administration, a maximum of two samples were obtained from each mouse, with samples being taken either via submandibular bleed (approximately 120 μl; conscious sampling) or terminal cardiac puncture (0.6 ml; under inhaled Isoflurane anesthesia). No urine samples were collected as mice were housed in bedded cages during the study. […] Mice were humanely sacrificed by cervical dislocation while under anaesthesia (using gaseous isoflurane) at the end of experiments. Blood was collected directly into polypropylene Eppendorf tubes containing heparin as anti-coagulant, and stabilization cocktail (containing Complete (a protease inhibitor cocktail with EDTA) and potassium fluoride) to minimize the potential for ex vivo degradation of the test compounds in blood/plasma samples. Once collected, blood samples were centrifuged immediately, supernatant plasma was removed, and stored at either -80°C (for the IV exposure) or at -20°C (for the IP exposure) until analysis by liquid chromatography-mass spectrometry (LC-MS). Following protein precipitation with acetonitrile, thawed plasma samples were analyzed by LC-MS (Waters Micromass Quattro Premier coupled to a Waters Acquity UPLC) using positive electrospray ionization operating in MRM mode.

[7] = test system: Hep G2; assay: Real-time cell viability, RealTime-Glo MT; format: cell-based, human; conditions: 2 or 8 μg/ml, up to 20 h post-treatment
[8] = Pharmacokinetics after IP administration; format: in vivo, mouse; conditions: mice, IP 43 mg/kg
Procedure: as §2

[9] = test system: S. aureus Xen29; assay: Point of resistance assay (serial passage)
[10] = test system: S. pneumoniae D39; assay: Time-dependent killing assay; format: cell-based, Streptococcus pneumoniae
Procedure: Time kill assays were performed (in duplicate) essentially as described previously with slight modifications. Briefly, a few colonies of luminescent S. pneumoniae strain D39LUX or luminescent S. aureus ATCC 12600 (Xen29) from an overnight HBA were emulsified in normal saline and adjusted to A600 nm = 0.10 (equivalent to approx. 5 × 10^7 c.f.u. per ml) and the bacterial suspension further diluted 1:20 in saline. […] The compounds were serially diluted in 100% DMSO at 100× the final desired concentration and 100 μl of appropriate concentrations added to each 10 ml preparation. Duplicate cultures were incubated at 37°C (+ 5% CO2 for S. pneumoniae D39), with samples withdrawn at 0, 0.5, 1, 2, 4, 6, 8 and 24 h, serially diluted 10-fold and plated on HBA overnight at 37°C (+ 5% CO2 for S. pneumoniae D39) for bacterial enumeration.

SMILES: Cc1ccc(/C=N/Nc2cc(N/N=C/c3ccc(C)cc3)nc(N)n2)cc1 [NCL195, 4,6-bis(2-((E)-4-methylbenzylidene)hydrazinyl)pyrimidin-2-amine]
- IC50 [1]: 12 ± 0.1 µg/mL (≈ 33.4 µM)
- IC50 [2]: 40.1 ± 0.2 µg/mL (≈ 112 µM)
- IC50 [3]: 12.8 ± 0.1 µg/mL (≈ 35.6 µM)
- IC50 [4]: 10.9 ± 0.2 µg/mL (≈ 30.3 µM)
- MIC range ([5]; 21 isolates): 2 to 8 µg/mL
- MIC range ([5]; S1 Table isolates, 5% FBS + 3% washed RBC): 2 to 8 µg/mL
- MIC range ([5]; S1 Table isolates, 10% FBS + 3% washed RBC): 2 to 8 µg/mL
- Change of MIC in the presence of serum ([5]; S. pneumoniae D39, human, horse or mouse serum): remained the same
- MIC ([5]; A66.1 (serotype 3), 5% FBS): 8 µg/mL (≈ 22.3 µM)
- MIC ([5]; A66.1 (serotype 3), 10% FBS): 8 µg/mL (≈ 22.3 µM)
- MIC ([5]; ATCC6303, ATCC 6303 (serotype 3), 5% FBS + 3% washed RBC): 4 µg/mL
- MIC ([5]; ATCC6303, ATCC 6303 (serotype 3), 10% FBS + 3% washed RBC): 4 µg/mL
- MIC ([5]; D39/D39LUX (serotype 2), 5% FBS): 8 µg/mL (≈ 22.3 µM)
- MIC ([5]; D39/D39LUX (serotype 2), 10% FBS): 8 µg/mL (≈ 22.3 µM)
- MIC ([5]; EF3030 (serotype 19F), 5% FBS): 8 µg/mL (≈ 22.3 µM)
- MIC ([5]; EF3030 (serotype 19F), 10% FBS): 8 µg/mL (≈ 22.3 µM)
- MIC ([5]; L82016 (serotype 6B), 5% FBS): 4 µg/mL (≈ 11.1 µM)
- MIC ([5]; L82016 (serotype 6B), 10% FBS): 8 µg/mL (≈ 22.3 µM)
- MIC ([5]; P9 (serotype 6A), 5% FBS): 8 µg/mL (≈ 22.3 µM)
- MIC ([5]; P9 (serotype 6A), 10% FBS): 8 µg/mL (≈ 22.3 µM)
- MIC ([5]; P21 (serotype 3), 5% FBS): 8 µg/mL (≈ 22.3 µM)
- MIC ([5]; P21 (serotype 3), 10% FBS): 8 µg/mL (≈ 22.3 µM)
- MIC50 ([5]; S1 Table isolates, 5% FBS): 4 µg/mL (≈ 11.1 µM)
- MIC90 ([5]; S1 Table isolates, 5% FBS): 8 µg/mL (≈ 22.3 µM)
- MIC50 ([5]; S1 Table isolates, 10% FBS): 8 µg/mL (≈ 22.3 µM)
- MIC90 ([5]; S1 Table isolates, 10% FBS): 8 µg/mL (≈ 22.3 µM)
- MIC ([5]; TIGR4 (serotype 4), 5% FBS): 4 µg/mL (≈ 11.1 µM)
- MIC ([5]; TIGR4 (serotype 4), 10% FBS): 4 µg/mL (≈ 11.1 µM)
- MIC ([5]; WCH16 (serotype 6A), 5% FBS): 8 µg/mL (≈ 22.3 µM)
- MIC ([5]; WCH16 (serotype 6A), 10% FBS): 8 µg/mL (≈ 22.3 µM)
- MIC ([5]; WCH43 (serotype 4), 5% FBS): 4 µg/mL (≈ 11.1 µM)
- MIC ([5]; WCH43 (serotype 4), 10% FBS): 4 µg/mL (≈ 11.1 µM)
- MIC ([5]; WCH46 (serotype 4), 5% FBS): 4 µg/mL (≈ 11.1 µM)
- MIC ([5]; WCH46 (serotype 4), 10% FBS): 4 µg/mL (≈ 11.1 µM)
- MIC ([5]; WCH57 (serotype 8), 5% FBS): 4 µg/mL (≈ 11.1 µM)
- MIC ([5]; WCH57 (serotype 8), 10% FBS): 4 µg/mL (≈ 11.1 µM)
- MIC ([5]; WCH77 (serotype 5), 5% FBS): 2 µg/mL (≈ 5.56 µM)
- MIC ([5]; WCH77 (serotype 5), 10% FBS): 2 µg/mL (≈ 5.56 µM)
- MIC ([5]; WCH86 (serotype 4), 5% FBS): 4 µg/mL (≈ 11.1 µM)
- MIC ([5]; WCH86 (serotype 4), 10% FBS): 4 µg/mL (≈ 11.1 µM)
- MIC ([5]; WCH89 (serotype 7), 5% FBS): 8 µg/mL (≈ 22.3 µM)
- MIC ([5]; WCH89 (serotype 7), 10% FBS): 8 µg/mL (≈ 22.3 µM)
- MIC ([5]; WCH92 (serotype 4), 5% FBS): 4 µg/mL (≈ 11.1 µM)
- MIC ([5]; WCH92 (serotype 4), 10% FBS): 4 µg/mL (≈ 11.1 µM)
- MIC ([5]; WCH137 (serotype 6A), 5% FBS): 8 µg/mL (≈ 22.3 µM)
- MIC ([5]; WCH137 (serotype 6A), 10% FBS): 8 µg/mL (≈ 22.3 µM)
- MIC ([5]; WCH158 (serotype 19F), 5% FBS): 4 µg/mL (≈ 11.1 µM)
- MIC ([5]; WCH158 (serotype 19F), 10% FBS): 4 µg/mL (≈ 11.1 µM)
- MIC ([5]; WCH184 (serotype 19F), 5% FBS): 8 µg/mL (≈ 22.3 µM)
- MIC ([5]; WCH184 (serotype 19F), 10% FBS): 8 µg/mL (≈ 22.3 µM)
- MIC ([5]; WCH211 (serotype 11), 5% FBS): 4 µg/mL (≈ 11.1 µM)
- MIC ([5]; WCH211 (serotype 11), 10% FBS): 4 µg/mL (≈ 11.1 µM)
- MIC ([5]; WU2 (serotype 3), 5% FBS): 8 µg/mL (≈ 22.3 µM)
- MIC ([5]; WU2 (serotype 3), 10% FBS): 8 µg/mL (≈ 22.3 µM)
- AUC(0-inf) ([6]; male, Swiss (outbred), iv, 5 mg/kg, read-out: AUC0-inf): 12.5 µM·h
- clearance ([6]; male, Swiss (outbred), iv, 5 mg/kg, read-out: Plasma CL): 16.3 mL/min/kg
- half-life ([6]; IV 5 mg/kg, read-out: Apparent t½ (converted)): 2.4 h
- Vd ([6]; IV 5 mg/kg, read-out: Plasma VSS): 2.6 L/kg
- Effect on cell viability (real-time) [7]: no measurable effect on cell viability
- Adverse reactions after IP administration [8]: No adverse reactions or compound-related side effects were observed
- Plasma concentration ([8]; between 7.5 and 24 h post-dose): 200 to 500 ng/mL
- Plasma concentration ([8]; initial 7.5 h post-dose): 3000 to 4000 ng/mL
- MIC of colonies that grew after 72 h in the presence of NCL195 ([9]; 10^5 c.f.u. Xen29 in broth with 1×, 2× and 4× MIC): 1 × MIC
- Resistance (fold MIC) over serial passage ([9]; 24 daily sequential cultures): ≤ 1 × MIC
- Time to reduce the population below the limit of detection ([10]; 2× MIC): 6 h
- Time to reduce the population below the limit of detection ([10]; 4× MIC): 4 h
